Common to all, as to assay: NCI-60 cell line screen, 48 h
In experiment [1] the test system is 786-0.
Experiment [2] deals with A549.
Experiment [3] has as its system COLO 205.
Experiment [4] relates to HCC 2998.
For experiment [5], the system named is HCT-15.
Experiment [6] relates to HOP-92.
The test system of experiment [7] is HT-29.
In experiment [8] the test system is LOX IMVI.
For experiment [9], the system named is MDA-N.
Experiment [10] concerns NCI-H226.
In experiment [11] the test system is NCI-H23.
The test system of experiment [12] is NCI-H460.
Experiment [13] relates to NCI/ADR-RES.
Experiment [14] concerns OVCAR-3.
Experiment [15] deals with SF-295.
Experiment [16] concerns SK-OV-3.
The subject of experiment [17] is SN12C.
The test system of experiment [18] is SR.
For experiment [19], the system named is SW-620.
In experiment [20] the test system is T47D.

SMILES strings stand for the structures.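 Five compound concentrations were applied to cells in 96-well plates for 48 hours; endpoints were derived by simple linear interpolation of the resulting dose-response curve. At the GI50, growth is halved.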 Calls of active or inactive are those of the source. No stated cut-off is given here; in the data, active = GI50 up to about 1.1 µM and inactive = higher.

As to `NS(=O)(=O)c1ccc(NC(=O)N/N=C/c2ccccc2O)cc1`, the GI50 was 73.8 µM (inactive) in experiment [1]; > 100 µM (inactive) in [2]; 35.5 µM (inactive) in experiment [3]; 40.7 µM (inactive) in experiment [4]; 48 µM in [5]; 94.4 µM (inactive) in experiment [6]. Further, the GI50 was 45.5 µM (inactive) in [7]; 47.4 µM (inactive) in experiment [8]; 22.1 µM (inactive) in [9]; 66.1 µM (inactive) in [10]; 80.7 µM (inactive) in experiment [11]; 67.9 µM (inactive) in experiment [12]. In addition, the GI50 in [13] is 68.4 µM (inactive); in [14] it was 42 µM (inactive); in experiment [15], 67.8 µM (inactive); in [16] it was 81.5 µM (inactive); in experiment [17] it was 85.3 µM (inactive); in [18], 22.2 µM (inactive). Besides, the GI50 is 74.3 µM (inactive) in experiment [19] and 88.7 µM (inactive) in [20].
On to `O=C1CSC(=O)/C1=C\NNc1nc2ccccc2o1`, for which the GI50 in experiment [1] is 40.2 µM (inactive); in experiment [2] it was 27.7 µM (inactive); in experiment [3], 27 µM (inactive); in [4], 54.1 µM (inactive); in experiment [5], 12 µM; in [6] it was 23.3 µM (inactive). Also, the GI50 in experiment [7] is 24.7 µM (inactive); in experiment [8], 22.4 µM (inactive); in experiment [9], 52.1 µM (inactive); in experiment [10], 36 µM (inactive); in experiment [11], 24.5 µM (inactive); in experiment [12], 23.8 µM (inactive). For the same molecule, the GI50 in experiment [13] is 12.5 µM (inactive); in [14] it was 17.4 µM (inactive); in [15], 19.9 µM (inactive); in [16] it was 32.3 µM (inactive); in experiment [17], 29.6 µM (inactive); in experiment [18], 24.5 µM (inactive). For the same molecule, the GI50 in experiment [19] is 29.8 µM (inactive); in experiment [20], 6.34 µM (inactive).
In the case of `CCOP(=O)(OCC)/C(C#N)=C/c1c[nH]c2ccccc12`, the GI50 in [1] was > 100 µM (inactive); in experiment [2], > 100 µM (inactive); in experiment [3], > 100 µM (inactive); in [4], > 100 µM (inactive); in experiment [5], more than 100 µM; in [6] it was > 100 µM (inactive). Besides, the GI50 in experiment [7], in [8], in [9], in [10], in [11] and in [12] was > 100 µM (inactive) in each case. Further, the GI50 was 53 µM (inactive) in [13]; 62.8 µM (inactive) in [14]; > 100 µM (inactive) in [15]; > 100 µM (inactive) in [16]; > 100 µM (inactive) in experiment [17]; > 100 µM (inactive) in [18]. In addition, the GI50 in [19] and in experiment [20] was > 100 µM (inactive) in each case.
For the molecule `COc1ccc2nc3cc([N+](=O)[O-])ccc3c(NNc3ccc([N+](=O)[O-])cc3)c2c1`, the GI50 in experiment [1] is 36.9 µM (inactive); in experiment [2], 7.18 µM (inactive); in [3] it was 17.2 µM (inactive); in experiment [4], 11.1 µM (inactive); in [5] it was 55.8 µM; in experiment [6], 26.7 µM (inactive). Besides, the GI50 is 7.46 µM (inactive) in experiment [7]; 61.1 µM (inactive) in experiment [8]; 30.5 µM (inactive) in [9]; 2.36 µM (inactive) in experiment [10]; 28.4 µM (inactive) in experiment [11]; 3.16 µM (inactive) in experiment [12]. Further, the GI50 in experiment [13] was 61.8 µM (inactive); in experiment [14], 22.4 µM (inactive); in experiment [15] it was 22 µM (inactive); in [16], 98.4 µM (inactive); in experiment [17], 31.5 µM (inactive); in [18], 32.5 µM (inactive). Besides, the GI50 in [19] is 9.02 µM (inactive); in experiment [20], 37.6 µM (inactive).
With `CC1(C)O[C@@H]2C[C@H]3[C@@H]4C[C@H](F)C5=CC(=O)C=C[C@]5(C)[C@@]4(F)[C@@H](O)C[C@]3(C)[C@]2(C(=O)CO)O1` [FLUOCINOLONE ACETONIDE], the GI50 is > 100 µM (inactive) in experiment [1]; > 100 µM (inactive) in experiment [2]; > 100 µM (inactive) in [3]; > 100 µM (inactive) in experiment [4]; more than 100 µM in experiment [5]; > 100 µM (inactive) in experiment [6]. Besides, the GI50 in experiment [7] is > 100 µM (inactive); in experiment [8] it was > 100 µM (inactive); in [9] it was > 100 µM (inactive); in experiment [10], > 85.1 µM (inactive); in experiment [11] it was > 100 µM (inactive); in experiment [12], > 100 µM (inactive). Also, the GI50 in experiment [13] is > 100 µM (inactive); in [14], > 100 µM (inactive); in experiment [15] it was > 100 µM (inactive); in experiment [16], > 72.3 µM (inactive); in experiment [17], 12 µM (inactive); in experiment [18] it was > 100 µM (inactive). The GI50 in experiment [19] and in [20] was > 100 µM (inactive) in each case.
On to `COc1ccc(-c2c(N)n(-c3cc(OC)cc(OC)c3)c(=O)c3cc([N+](=O)[O-])ccc23)cc1`, for which the GI50 in [1] is > 49.5 µM (inactive); in [2] it was > 100 µM (inactive); in [3], > 27.3 µM (inactive); in experiment [4], > 100 µM (inactive); in experiment [5], more than 54.5 µM; in experiment [6], 3.21 µM (inactive). In addition, the GI50 in experiment [7] is > 53.2 µM (inactive); in experiment [8], 24.7 µM (inactive); in experiment [9], > 50.8 µM (inactive); in [10], > 36.1 µM (inactive); in experiment [11], > 92 µM (inactive); in experiment [12] it was > 100 µM (inactive). Moreover, the GI50 in experiment [13] was > 66.1 µM (inactive); in experiment [14], 24.4 µM (inactive); in [15], > 100 µM (inactive); in experiment [16] it was > 100 µM (inactive); in [17] it was > 100 µM (inactive); in experiment [18] it was 27.4 µM (inactive). For the same molecule, the GI50 in [19] is > 87.7 µM (inactive); in experiment [20] it was 7.4 µM (inactive).
With `CCO/C=N/C1=C(C#N)SC2=N/C(=C\c3ccccc3)C(=O)N21`, the GI50 in experiment [1] was > 100 µM (inactive); in experiment [2] it was > 100 µM (inactive); in experiment [3], > 100 µM (inactive); in experiment [4], > 100 µM (inactive); in experiment [5], more than 100 µM; in experiment [6], > 100 µM (inactive). The GI50 is > 100 µM (inactive) in experiment [7]; > 100 µM (inactive) in experiment [8]; > 100 µM (inactive) in [9]; 97.3 µM (inactive) in [10]; > 100 µM (inactive) in [11]; > 100 µM (inactive) in [12]. Further, the GI50 in experiment [13] is > 100 µM (inactive); in [14] it was > 100 µM (inactive); in experiment [15] it was > 100 µM (inactive); in experiment [16] it was > 100 µM (inactive); in experiment [17], > 100 µM (inactive); in [18], 39.4 µM (inactive). For the same molecule, the figures for the GI50 in experiment [19] and in experiment [20] were > 100 µM (inactive) and 86.9 µM (inactive), respectively.
With `O=C(O)CN(CCNC(=O)OCC1c2ccccc2-c2ccccc21)CCNC(=O)OCC1c2ccccc2-c2ccccc21`, the GI50 in [1] was 20.1 µM (inactive); in [2], 23.3 µM (inactive); in experiment [3], 20.8 µM (inactive); in experiment [4], 35.6 µM (inactive); in experiment [5], 27.2 µM; in [6], 22.1 µM (inactive). Besides, the GI50 is 17.5 µM (inactive) in [7]; 18.1 µM (inactive) in [8]; 20 µM (inactive) in [9]; 33.3 µM (inactive) in experiment [10]; 24.8 µM (inactive) in experiment [11]; 19.2 µM (inactive) in experiment [12]. The GI50 in [13] was 45.2 µM (inactive); in [14] it was 18.1 µM (inactive); in [15], 25 µM (inactive); in experiment [16], 32.2 µM (inactive); in experiment [17] it was 25 µM (inactive); in [18], 24.9 µM (inactive). Further, the GI50 in experiment [19] was 21.2 µM (inactive); in [20], 20.1 µM (inactive).
Turning to `COc1ccc(C2=C(N)c3c(OC)cccc3C2=O)cc1`, the GI50 in [1] is 85.1 µM (inactive); in experiment [3], > 100 µM (inactive); in experiment [4], > 100 µM (inactive); in experiment [5], more than 100 µM; in [6] it was > 10 µM (inactive); in experiment [7] it was > 100 µM (inactive). The GI50 is 99.5 µM (inactive) in [8]; > 100 µM (inactive) in experiment [9]; > 100 µM (inactive) in [10]; > 100 µM (inactive) in experiment [11]; > 100 µM (inactive) in experiment [12]; > 100 µM (inactive) in experiment [13]. The GI50 in experiment [14] is > 100 µM (inactive); in experiment [15], 86.1 µM (inactive); in experiment [16], > 100 µM (inactive); in [17] it was > 100 µM (inactive); in [18] it was > 100 µM (inactive); in experiment [19], > 100 µM (inactive). For the same molecule, the GI50 in experiment [20] was > 100 µM (inactive).
As to `COc1ccc(C2CCc3nc4nc(N)nc(N)c4cc3C2)cc1` (stereo not drawn), the GI50 was 3.13 µM (inactive) in experiment [1]; 39.3 µM (inactive) in [2]; 40.3 µM (inactive) in [3]; 31.8 µM (inactive) in experiment [4]; 58.9 µM in [5]; 1.2 µM (inactive) in [6]. Moreover, the GI50 in experiment [7] is 29.2 µM (inactive); in experiment [8] it was 12.1 µM (inactive); in [9], 38.3 µM (inactive); in [10], 49.4 µM (inactive); in [12] it was 40.6 µM (inactive); in experiment [13], 39.2 µM (inactive). The GI50 in experiment [14] was 17.3 µM (inactive); in experiment [15] it was 16.8 µM (inactive); in [16], 10.1 µM (inactive); in experiment [17] it was 6.7 µM (inactive); in experiment [18], 24.3 µM (inactive); in experiment [19] it was 36.6 µM (inactive). Besides, the GI50 in experiment [20] is 21 µM (inactive).

The values above are taken from ChEMBL document CHEMBL1201862, “PubChem BioAssay data set” (2004).
